Results reported in US20240360081A1, “SULFONAMIDE OREXIN RECEPTOR AGONISTS AND USES THEREOF” (Jazz Pharmaceuticals Ireland Limited, priority 2021, published 2024).

target: T1, human recombinant OX2 (hOX2) receptor expressed in CHO cells (Homo sapiens, UniProt O43614); assay: IP-1 accumulation assay (IP-One HTRF) in hOX2-CHO cells; format: cell-based; conditions: 60 min at 37° C., 11 points CRC, response as % of maximal OX-A response
T1 construct: host or cells: CHO cells (hOX2-CHO)
T1 sequence (O43614 1-444): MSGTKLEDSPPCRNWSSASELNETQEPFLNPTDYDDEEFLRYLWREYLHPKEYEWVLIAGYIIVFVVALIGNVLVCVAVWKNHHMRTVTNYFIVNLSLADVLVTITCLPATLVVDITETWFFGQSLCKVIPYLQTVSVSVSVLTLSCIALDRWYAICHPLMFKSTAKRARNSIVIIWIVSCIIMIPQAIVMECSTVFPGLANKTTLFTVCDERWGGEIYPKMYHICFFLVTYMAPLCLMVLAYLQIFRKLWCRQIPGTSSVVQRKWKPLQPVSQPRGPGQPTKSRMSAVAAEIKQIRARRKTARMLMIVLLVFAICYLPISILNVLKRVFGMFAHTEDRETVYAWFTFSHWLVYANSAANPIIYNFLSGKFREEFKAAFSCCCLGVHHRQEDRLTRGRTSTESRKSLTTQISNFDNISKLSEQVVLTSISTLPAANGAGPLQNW
Procedure: The accumulation of Inositol-1 Monophosphate (IP-1) was measured using IP-One HTRF® Terbium cryptate based assay (Cisbio) in human recombinant OX1 (hOX1) and at OX2 (hOX2) receptors expressed in CHO cells (DiscoverX) according to the manufacturer's instructions for cells tested in suspension.
hOX1-CHO and hOX2-CHO cells were seeded into white 384-well plates at a density of 20,000 cells/well in Hank's Balanced Salt Solution (HBSS) containing 20 mM HEPES pH 7.4, 50 mM, LiCl and 0.1% and Bovine Serum Albumin (BSA).
Compounds of the present disclosure were tested in a 11 points concentration response curve (CRC) serially diluted in neat DMSO at 200 fold concentrations and added by Echo acoustic liquid handling (Labcyte) to the cells (0.5% DMSO final in the assay). After 60 min of incubation at 37° C. detection reagents, IP1-d2 tracer and anti-IP1-cryptate were diluted in lysis buffer according to the manufacturer's descriptions and added to the cells.
Following 60 min incubation at room temperature, time-resolved fluorescence (HTRF) was measured at 615 nm and 665 nm by Envision Multilabel reader (Perkin Elmer) and the HTRF ratio (A665/A615x104) was calculated.
The IP-1 accumulation response was expressed as percentage of the maximal OX-A response.
Curve fitting and EC50 estimations were carried out using a four-parameter logistic model using XLfit Software. Mean data of EC50 are calculated from at least two independent experiments performed in duplicates.
In the Tables, below Category A corresponds to compounds displaying an […]<100 nM, Category B between 100 nM and 1,000 nM, Category C between 1,000 nM and 10,000 nM and Category D above 10,000 nM.

Compound	EC50
Cc1ccn(C(CNS(C)(=O)=O)CO[C@H]2CC[C@@H](c3ccccc3)CC2)c(=O)c1C (stereo partly drawn) [Example 2m, N-[2-(3,4-dimethyl-2-oxo-1,2-dihydropyridin-1-yl)-3-{[(CIS)-4-phenylcyclohexyl]oxy}propyl]methanesulfonamide]	100 to 1000 nM
Cc1cc(C)c(=O)n(C(CNS(=O)(=O)N(C)C)CO[C@H]2CC[C@@H](c3cccc(F)c3)CC2)c1 (single isomer, unassigned; isomer 1) [Example 2ar, (R or S) 1-[1-[(dimethylsulfamoyl)amino]-3-{[(CIS)-4-(3-fluorophenyl)cyclohexyl]oxy}propan-2-yl]-3,5-dimethyl-1,2-dihydropyridin-2-one-Isomer 1]	< 100 nM
CS(=O)(=O)NCC(CO[C@H]1CC[C@@H](c2ccccc2)CC1)n1ccc2cccnc21 (stereo partly drawn) [Example 2z, N-(2-{1H-pyrrolo[2,3-b]pyridin-1-yl}-3-{[(CIS)-4-phenylcyclohexyl]oxy}propyl)methanesulfonamide]	1000 to 10000 nM
Cc1cc(C)c(=O)n(C(CNS(C)(=O)=O)COC2CCN(c3ncc(F)cn3)CC2)c1 (single isomer, unassigned; isomer 1) [Example 2az, (R or S) N-[2-(3,5-dimethyl-2-oxo-1,2-dihydropyridin-1-yl)-3-{[1-(5-fluoropyrimidin-2-yl)piperidin-4-yl]oxy}propyl]methanesulfonamide-Isomer 1]	1000 to 10000 nM
Cc1cc(C)c(=O)n(C(CNS(=O)(=O)CF)CO[C@H]2CC[C@@H](c3cccc(F)c3)CC2)c1 (stereo partly drawn) [Example 2at, N-[2-(3,5-dimethyl-2-oxo-1,2-dihydropyridin-1-yl)-3-{[(CIS)-4-(3-fluorophenyl)cyclohexyl]oxy}propyl]-1-fluoromethanesulfonamide]	< 100 nM
Cc1cc(C)c(=O)n(C(CNS(C)(=O)=O)CO[C@H]2CC[C@@H](c3ccccc3)CC2)c1 (stereo partly drawn) [Example 2s, N-[2-(3,5-dimethyl-2-oxo-1,2-dihydropyridin-1-yl)-3-{[(CIS)-4-phenylcyclohexyl]oxy}propyl]methanesulfonamide]	< 100 nM
CS(=O)(=O)NCC(CO[C@H]1CC[C@@H](c2ccccc2)CC1)n1ccccc1=O (single isomer, unassigned; isomer 2) [Example 1b, (S or R) N-[2-(2-oxo-1,2-dihydropyridin-1-yl)-3-{[(CIS)-4-phenylcyclo-hexyl]oxy}propyl] methane-sulfonamide- Isomer 2]	> 10000 nM
CCc1cccn(C(CNS(C)(=O)=O)CO[C@H]2CC[C@@H](c3ccccc3)CC2)c1=O (stereo partly drawn) [Example 2, N-[2-(3-ethyl-2-oxo-1,2-dihydropyridin-1-yl)-3-{[(CIS)-4-phenylcyclohexyl]oxy}propyl]methanesulfonamide]	1000 to 10000 nM
CS(=O)(=O)NCC(CO[C@H]1CC[C@@H](c2ccccc2)CC1)n1cc(OC(F)F)ccc1=O (stereo partly drawn) [Example 2q, N-{2-[5-(difluoromethoxy)-2-oxo-1,2-dihydropyridin-1-yl]-3-{[(CIS)-4-phenylcyclohexyl]oxy}propyl}methanesulfonamide]	1000 to 10000 nM
CCC[C@H]1CC[C@@H](OCC(CNS(=O)(=O)N(C)C)n2cc(C)cc(C)c2=O)CC1 (stereo partly drawn) [Example 2bb, 1-{1-[(dimethylsulfamoyl)amino]-3-{[(CIS)-4-propylcyclohexyl]oxy}propan-2-yl}-3,5-dimethyl-1,2-dihydropyridin-2-one]	< 100 nM
Cc1cc(C)c(=O)n(C(CNS(=O)(=O)CF)CO[C@H]2CC[C@@H](c3cccc(F)c3)CC2)c1 (single isomer, unassigned; isomer 1) [Example 2au, (R or S) N-[2-(3,5-dimethyl-2-oxo-1,2-dihydropyridin-1-yl)-3-{[(CIS)-4-(3-fluorophenyl)cyclohexyl]oxy}propyl]-1-fluoromethanesulfonamide-Isomer 1]	< 100 nM
CS(=O)(=O)NCC(CO[C@H]1CC[C@@H](c2ccccc2)CC1)n1ccccc1=O (stereo partly drawn) [Example 1, N-[2-(2-oxo-1,2-dihydropyridin-1-yl)-3-{[(CIS)-4-phenylcyclohexyl]oxy}propyl]methanesulfonamide]	1000 to 10000 nM
CS(=O)(=O)NCC(CO[C@H]1CC[C@@H](c2ccccc2)CC1)n1cc(Cl)ccc1=O (stereo partly drawn) [Example 2p, N-[2-(5-chloro-2-oxo-1,2-dihydropyridin-1-yl)-3-{[(CIS)-4-phenylcyclohexyl]oxy}propyl]methanesulfonamide]	1000 to 10000 nM
Cc1ccc(=O)n(C(CNS(C)(=O)=O)CO[C@H]2CC[C@@H](c3ccccc3)CC2)c1 (stereo partly drawn) [Example 2i, N-[2-(5-methyl-2-oxo-1,2-dihydropyridin-1-yl)-3-{[(CIS)-4-phenylcyclohexyl]oxy}propyl]methanesulfonamide]	100 to 1000 nM
Cc1cc(C)c(=O)n(C(CNS(C)(=O)=O)CO[C@H]2CC[C@@H](c3ccccc3)CC2)c1 (single isomer, unassigned; isomer 2) [Example 2u, (S or R) N-[2-(3,5-dimethyl-2-oxo-1,2-dihydropyridin-1-yl)-3-{[(CIS)-4-phenylcyclohexyl]oxy}propyl]methanesulfonamide-Isomer 2]	1000 to 10000 nM
Cc1ccc(=O)n(C(CNS(C)(=O)=O)CO[C@H]2CC[C@@H](c3ccccc3)CC2)c1 (single isomer, unassigned; isomer 2) [Example 2k, (S or R) N-[2-(5-methyl-2-oxo-1,2-dihydropyridin-1-yl)-3-{[(CIS)-4-phenylcyclohexyl]oxy}propyl]methanesulfonamide-Isomer 2]	> 10000 nM
COc1ccc(=O)n(C(CNS(C)(=O)=O)CO[C@H]2CC[C@@H](c3ccccc3)CC2)c1 (stereo partly drawn) [Example 2v, N-[2-(5-methoxy-2-oxo-1,2-dihydropyridin-1-yl)-3-{[(CIS)-4-phenylcyclohexyl]oxy}propyl]methanesulfonamide]	1000 to 10000 nM
Cc1ccn(C(CNS(C)(=O)=O)CO[C@H]2CC[C@@H](c3ccccc3)CC2)n1 (single isomer, unassigned; isomer 2) [Example 2ac, (S or R) N-[2-(3-methyl-1H-pyrazol-1-yl)-3-{[(CIS)-4-phenylcyclohexyl]oxy}propyl]methanesulfonamide-Isomer 2]	> 10000 nM

The remaining lines, values ahead:

EC50	Compound
> 10000 nM	CS(=O)(=O)NCC(Cc1cccc(-c2ccccc2)c1)n1ccccc1=O (stereo not shown) [Example 8a, N-(3-{[1,1′-biphenyl]-3-yl}-2-(2-oxo-1,2-dihydropyridin-1-yl)propyl)methanesulfonamide]
100 to 1000 nM	Cc1cc(C(CNS(C)(=O)=O)CO[C@H]2CC[C@@H](c3cccc(F)c3)CC2)c(=O)n(CC#N)c1 (stereo partly drawn) [Example 5e, N-{2-[1-(cyanomethyl)-5-methyl-2-oxo-1,2-dihydropyridin-3-yl]-3-{[(CIS)-4-(3-fluorophenyl)cyclohexyl]oxy}propyl}methanesulfonamide]
1000 to 10000 nM	Cc1cc(-c2cccnc2)cn(C(CNS(C)(=O)=O)CO[C@H]2CC[C@@H](c3ccccc3)CC2)c1=O (stereo partly drawn) [Example 6a, N-(2-{5-methyl-6-oxo-1,6-dihydro-[3,3′-bipyridin]-1-yl}-3-{[(CIS)-4-phenylcyclohexyl]oxy}propyl) methanesulfonamide]
> 10000 nM	Cc1cc(C(CNS(C)(=O)=O)COC2CCN(c3ncc(F)cn3)CC2)c(=O)n(C)c1 (stereo not shown) [Example 5p, N-[2-(1,5-dimethyl-2-oxo-1,2-dihydropyridin-3-yl)-3-{[1-(5-fluoropyrimidin-2-yl)piperidin-4-yl]oxy}propyl]methanesulfonamide]
< 100 nM	Cc1cc(C(CNS(C)(=O)=O)CO[C@H]2CC[C@@H](c3cccc(F)c3)CC2)c(=O)n(C(F)F)c1 (stereo partly drawn) [Example 5x, N-{2-[1-(difluoromethyl)-5-methyl-2-oxo-1,2-dihydropyridin-3-yl]-3-{[(CIS)-4-(3-fluorophenyl)cyclohexyl]oxy}propyl}methanesulfonamide]
< 100 nM	Cc1cc(C(CNS(=O)(=O)N(C)C)CO[C@H]2CC[C@@H](c3cc(F)cc(F)c3)CC2)c(=O)n(C)c1 (stereo partly drawn) [Example 5u, 3-{1-[(dimethylsulfamoyl)amino]-3-{[(CIS)-4-(3,5-difluorophenyl)cyclohexyl]oxy}propan-2-yl}-1,5-dimethyl-1,2-dihydropyridin-2-one]
1000 to 10000 nM	Cn1cccc(C(CNS(C)(=O)=O)CO[C@H]2CC[C@@H](c3ccccc3)CC2)c1=O (single isomer, unassigned; isomer 1) [Example 4a, (R or S) N-[2-(1-methyl-2-oxo-1,2-dihydropyridin-3-yl)-3-{[(CIS)-4-phenylcyclohexyl]oxy}propyl]methanesulfonamide—Isomer 1]
